Test results published in patent US11718604B2, “4-amino-6-(1,3-benzodioxole)picolinates and their use as herbicides” (Dow AgroSciences LLC, priority 2018, dated 2023).

Experiments:
Type in all cases: in vivo
[1] = tested on: DIGSA: large crabgrass (Digitaria sanguinalis); assay: Post-emergent herbicidal test, large crabgrass; details: post-emergence, 336 h, 14 days after application, read-out: Visual Growth Reduction (%) 14 Days After Application DIGSA; for pest or weed control at 17.5 g/ha: 17.5 g ai/ha; for pest or weed control at 35 g/ha: 35 g ai/ha; for pest or weed control at 70 g/ha: 70 g ai/ha; for pest or weed control at 140 g/ha: 140 g ai/ha
Procedure, shortened: (§1)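 Greenhouse-grown plants at the first or second true leaf stage (7-21 d, ~15 h photoperiod, 23-29° C day) were sprayed overhead at 187 L/ha with compound in acetone/DMSO-based spray solution containing crop oil concentrate and surfactant. Injury was scored visually after 14 d, 0-100% versus untreated plants.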

[2] = tested on: CIRAR: Canada thistle (Cirsium arvense); assay: Post-emergent herbicidal test, Canada thistle; details: post-emergence, 336 h, 14 days after application, read-out: Visual Growth Reduction (%) 14 Days After Application CIRAR; for pest or weed control at 17.5 g/ha: 17.5 g ai/ha; for pest or weed control at 35 g/ha: 35 g ai/ha; for pest or weed control at 70 g/ha: 70 g ai/ha; for pest or weed control at 140 g/ha: 140 g ai/ha
Procedure, shortened: as §1

[3] = tested on: IPOHE: ivyleaf morningglory (Ipomoea hederacea); assay: Post-emergent herbicidal test, ivyleaf morningglory; details: post-emergence, 336 h, 14 days after application, read-out: Visual Growth Reduction (%) 14 Days After Application IPOHE; for pest or weed control at 17.5 g/ha: 17.5 g ai/ha; for pest or weed control at 35 g/ha: 35 g ai/ha; for pest or weed control at 70 g/ha: 70 g ai/ha; for pest or weed control at 140 g/ha: 140 g ai/ha
Procedure, shortened: as §1

[4] = tested on: ABUTH: velvetleaf (Abutilon theophrasti); assay: Post-emergent herbicidal test, velvetleaf; details: post-emergence, 336 h, 14 days after application, read-out: Visual Growth Reduction (%) 14 Days After Application ABUTH; for pest or weed control at 17.5 g/ha: 17.5 g ai/ha; for pest or weed control at 35 g/ha: 35 g ai/ha; for pest or weed control at 70 g/ha: 70 g ai/ha; for pest or weed control at 140 g/ha: 140 g ai/ha
Procedure, shortened: as §1

[5] = tested on: VIOTR: wild violet (Viola tricolor); assay: Post-emergent herbicidal test, wild violet; details: post-emergence, 336 h, 14 days after application, read-out: Visual Growth Reduction (%) 14 Days After Application VIOTR; for pest or weed control at 17.5 g/ha: 17.5 g ai/ha; for pest or weed control at 35 g/ha: 35 g ai/ha; for pest or weed control at 70 g/ha: 70 g ai/ha; for pest or weed control at 140 g/ha: 140 g ai/ha
Procedure, shortened: as §1

[6] = tested on: EPHHL: wild poinsettia (Euphorbia heterophylla); assay: Post-emergent herbicidal test, wild poinsettia; details: post-emergence, 336 h, 14 days after application, read-out: Visual Growth Reduction (%) 14 Days After Application EPHHL; for pest or weed control at 17.5 g/ha: 17.5 g ai/ha; for pest or weed control at 35 g/ha: 35 g ai/ha; for pest or weed control at 70 g/ha: 70 g ai/ha; for pest or weed control at 140 g/ha: 140 g ai/ha
Procedure, shortened: as §1

[7] = tested on: SETFA: giant foxtail (Setaria faberi); assay: Post-emergent herbicidal test, giant foxtail; details: post-emergence, 336 h, 14 days after application, read-out: Visual Growth Reduction (%) 14 Days After Application SETFA; for pest or weed control at 17.5 g/ha: 17.5 g ai/ha; for pest or weed control at 35 g/ha: 35 g ai/ha; for pest or weed control at 70 g/ha: 70 g ai/ha; for pest or weed control at 140 g/ha: 140 g ai/ha
Procedure, shortened: as §1

[8] = tested on: SORVU: shattercane (Sorghum bicolor); assay: Post-emergent herbicidal test, shattercane; details: post-emergence, 336 h, 14 days after application, read-out: Visual Growth Reduction (%) 14 Days After Application SORVU; for pest or weed control at 17.5 g/ha: 17.5 g ai/ha; for pest or weed control at 35 g/ha: 35 g ai/ha; for pest or weed control at 70 g/ha: 70 g ai/ha; for pest or weed control at 140 g/ha: 140 g ai/ha
Procedure, shortened: as §1

[9] = tested on: ECHCG: barnyardgrass (Echinochloa crus-galli); assay: Post-emergent herbicidal test, barnyardgrass; details: post-emergence, 336 h, 14 days after application, read-out: Visual Growth Reduction (%) 14 Days After Application ECHCG; for pest or weed control at 17.5 g/ha: 17.5 g ai/ha; for pest or weed control at 35 g/ha: 35 g ai/ha; for pest or weed control at 70 g/ha: 70 g ai/ha; for pest or weed control at 140 g/ha: 140 g ai/ha
Procedure, shortened: as §1

[10] = tested on: CYPES: yellow nutsedge (Cyperus esculentus); assay: Post-emergent herbicidal test, yellow nutsedge; details: post-emergence, 336 h, 14 days after application, read-out: Visual Growth Reduction (%) 14 Days After Application CYPES; for pest or weed control at 17.5 g/ha: 17.5 g ai/ha; for pest or weed control at 35 g/ha: 35 g ai/ha; for pest or weed control at 70 g/ha: 70 g ai/ha; for pest or weed control at 140 g/ha: 140 g ai/ha
Procedure, shortened: as §1

[11] = tested on: BRSNN: oilseed rape, canola (Brassica napus); assay: Post-emergent herbicidal test, oilseed rape; details: post-emergence, 336 h, 14 days after application, read-out: Visual Growth Reduction (%) 14 Days After Application BRSNN; for pest or weed control at 17.5 g/ha: 17.5 g ai/ha; for pest or weed control at 35 g/ha: 35 g ai/ha; for pest or weed control at 70 g/ha: 70 g ai/ha; for pest or weed control at 140 g/ha: 140 g ai/ha
Procedure, shortened: as §1

## COC(=O)c1nc(-c2cccc3c2OCO3)c(F)c(N)c1Cl [Compound 2]
[1]
  pest or weed control at 17.5 g/ha: 0%
  pest or weed control at 35 g/ha: 0%
  pest or weed control at 70 g/ha: 0%
  pest or weed control at 140 g/ha: 0%
[2]
  pest or weed control at 17.5 g/ha: 60%
  pest or weed control at 35 g/ha: 100%
  pest or weed control at 70 g/ha: 98%
  pest or weed control at 140 g/ha: 98%
[3]
  pest or weed control at 17.5 g/ha: 0%
  pest or weed control at 35 g/ha: 0%
  pest or weed control at 70 g/ha: 10%
  pest or weed control at 140 g/ha: 25%
[4]
  pest or weed control at 17.5 g/ha: 50%
  pest or weed control at 35 g/ha: 60%
  pest or weed control at 70 g/ha: 75%
  pest or weed control at 140 g/ha: 95%
[5]
  pest or weed control at 17.5 g/ha: 0%
  pest or weed control at 35 g/ha: 0%
  pest or weed control at 70 g/ha: 0%
  pest or weed control at 140 g/ha: 10%
[6]
  pest or weed control at 17.5 g/ha: 0%
  pest or weed control at 35 g/ha: 0%
  pest or weed control at 70 g/ha: 0%
  pest or weed control at 140 g/ha: 0%
[7]
  pest or weed control at 17.5 g/ha: 0%
  pest or weed control at 35 g/ha: 0%
  pest or weed control at 70 g/ha: 0%
  pest or weed control at 140 g/ha: 0%
[8]
  pest or weed control at 17.5 g/ha: 0%
  pest or weed control at 35 g/ha: 0%
  pest or weed control at 70 g/ha: 0%
  pest or weed control at 140 g/ha: 0%
[9]
  pest or weed control at 17.5 g/ha: 0%
  pest or weed control at 35 g/ha: 0%
  pest or weed control at 70 g/ha: 0%
  pest or weed control at 140 g/ha: 0%
[10]
  pest or weed control at 17.5 g/ha: 0%
  pest or weed control at 35 g/ha: 0%
  pest or weed control at 70 g/ha: 10%
  pest or weed control at 140 g/ha: 30%
[11]
  pest or weed control at 17.5 g/ha: 30%
  pest or weed control at 35 g/ha: 40%
  pest or weed control at 70 g/ha: 85%
  pest or weed control at 140 g/ha: 90%

## Nc1c(F)c(-c2ccc(Cl)c3c2OC(F)(F)O3)nc(C(=O)O)c1Cl [Compound 14]
[1]
  pest or weed control at 17.5 g/ha: 0%
  pest or weed control at 35 g/ha: 0%
  pest or weed control at 70 g/ha: 0%
  pest or weed control at 140 g/ha: 5%
[2]
  pest or weed control at 17.5 g/ha: 78%
  pest or weed control at 35 g/ha: 83%
  pest or weed control at 70 g/ha: 85%
  pest or weed control at 140 g/ha: 90%
[3]
  pest or weed control at 17.5 g/ha: 3%
  pest or weed control at 35 g/ha: 3%
  pest or weed control at 70 g/ha: 8%
  pest or weed control at 140 g/ha: 13%
[4]
  pest or weed control at 17.5 g/ha: 43%
  pest or weed control at 35 g/ha: 53%
  pest or weed control at 70 g/ha: 73%
  pest or weed control at 140 g/ha: 80%
[5]
  pest or weed control at 17.5 g/ha: 5%
  pest or weed control at 35 g/ha: 13%
  pest or weed control at 70 g/ha: 43%
  pest or weed control at 140 g/ha: 58%
[6]
  pest or weed control at 17.5 g/ha: 0%
  pest or weed control at 35 g/ha: 0%
  pest or weed control at 70 g/ha: 0%
  pest or weed control at 140 g/ha: 10%
[7]
  pest or weed control at 17.5 g/ha: 0%
  pest or weed control at 35 g/ha: 0%
  pest or weed control at 70 g/ha: 0%
  pest or weed control at 140 g/ha: 0%
[8]
  pest or weed control at 17.5 g/ha: 0%
  pest or weed control at 35 g/ha: 3%
  pest or weed control at 70 g/ha: 13%
  pest or weed control at 140 g/ha: 30%
[9]
  pest or weed control at 17.5 g/ha: 0%
  pest or weed control at 35 g/ha: 0%
  pest or weed control at 70 g/ha: 0%
  pest or weed control at 140 g/ha: 5%
[10]
  pest or weed control at 17.5 g/ha: 0%
  pest or weed control at 35 g/ha: 10%
  pest or weed control at 70 g/ha: 30%
  pest or weed control at 140 g/ha: 50%
[11]
  pest or weed control at 17.5 g/ha: 90%
  pest or weed control at 35 g/ha: 95%
  pest or weed control at 70 g/ha: 98%
  pest or weed control at 140 g/ha: 100%
